Measurements from paper PMC3386246 (PLoS Pathogens, 2012).

Molecular target: T1, NtrC D54E (Escherichia coli, UniProt P0AFB8, D54E)
T1 construct: gene glnG
Assay: biochemical
Settings: read-out: % inhibition at 250 μM

T1 sequence (P0AFB8 whole entry D54E): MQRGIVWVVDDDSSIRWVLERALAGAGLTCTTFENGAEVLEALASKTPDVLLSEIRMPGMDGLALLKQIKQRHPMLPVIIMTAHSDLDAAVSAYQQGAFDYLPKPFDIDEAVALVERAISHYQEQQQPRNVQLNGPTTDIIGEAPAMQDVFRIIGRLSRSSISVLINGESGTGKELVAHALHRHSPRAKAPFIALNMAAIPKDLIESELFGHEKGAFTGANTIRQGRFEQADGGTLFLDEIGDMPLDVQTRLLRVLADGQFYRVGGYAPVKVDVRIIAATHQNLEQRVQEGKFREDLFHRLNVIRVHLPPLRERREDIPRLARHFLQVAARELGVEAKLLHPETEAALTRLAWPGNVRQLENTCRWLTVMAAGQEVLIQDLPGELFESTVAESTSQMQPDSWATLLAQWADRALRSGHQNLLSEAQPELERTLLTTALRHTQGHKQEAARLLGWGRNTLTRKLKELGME

Row | Structure (SMILES) | inhibition at 250 µM [%]
1 | CC(C)COC(=O)CSc1n[nH]c(=O)[nH]c1=O [compound 11] | ~10
2 | CC(C)(C)COC(=O)CSc1n[nH]c(=O)[nH]c1=O [compound 12] | ~10
